Experimental data published in article PMC12384813.
Like-named read-outs stand apart in the source and are kept apart here.

Key:
[1] = Solubility in aqueous media; format: physicochemical; conditions: needs 10% DMSO in saline to fully dissolve
[2] = Stability by mass spectrometry at physiological pH; format: physicochemical; conditions: pH 7.0, over 72 h
[3] = tested on: SVG p12 normal glial cells
U87 MG cells [4] = experiment: cells; format: cell-based, human
Experimental: In this procedure, U87 MG (2 × 10^4 cells per well) were seeded in BD falcon transparent 96-well plates and incubated for 24 h.

[5] = tested on: SVG p12 normal glial cells; experiment: cells; conditions: Homo sapiens
SVG p12 cells [6] = experiment: Cellular uptake of ^64Cu-NOTA conjugates; format: cell-based, human; conditions: Table S1
SVG p12 cells [7] = experiment: Internalization of ^64Cu-NOTA conjugates (glycine-HCl wash); format: cell-based, human; conditions: Table S2
SVG p12 cells [8] = experiment: Efflux kinetics of ^64Cu-NOTA conjugates; format: cell-based, human; conditions: Table S3
U87 MG cells [9] = experiment: Internalization of ^64Cu-NOTA conjugates (glycine-HCl wash); format: cell-based, human; conditions: Table S2
Experimental: (§1) U87 MG (1 × 10^5 per well) were seeded in corning 24-well plates and cultured in DMEM with 10% FBS at 37 °C. […] For uptake assay, cells were washed with PBS to collect surface-bound and internalized activity, and for internalization assay, glycine-HCl wash was performed to remove surface bound activity. Moreover, cells were harvested, counted, and radioactivity was measured using a gamma counter. Results were expressed as percentage of total activity (%) in counts per min (CPM)/10^6 cells. For efflux studies, U87 MG cells were incubated with the complexes for 1 h, then washed with PBS, and replaced with fresh medium. The retained activity was measured over 0 to 24 h after washing.

U87 MG cells [10] = experiment: Cellular uptake of ^64Cu-NOTA conjugates; format: cell-based, human; conditions: Table S1
Experimental: as §1

U87 MG cells [11] = experiment: Efflux kinetics of ^64Cu-NOTA conjugates; format: cell-based, human; conditions: Table S3
Experimental: as §1

[12] = 0.5 h after 1 h incubation and wash

N=C(N)NCCC[C@@H]1NC(=O)[C@H](CCCCNC(=O)[C@H](CCCCNC(=O)c2cc(-c3ccccn3)nc(-c3ccccn3)c2)NC(=O)COCCOCCNC(=O)CN2CCN(CC(=O)O)CCN(CC(=O)O)CC2)NC(=O)[C@@H](Cc2ccccc2)NC(=O)[C@H](CC(=O)O)NC(=O)CNC1=O [^natCu-NOTA-TP-c(RGDfK), metal not drawn]
solubility in aqueous media [1]: limited solubility in aqueous media
release of copper or platinum (mass spectrometry) [2]: no detectable release of copper or platinum

Cn1nnc2c(C(N)=O)ncn2c1=O [Temozolomide]
EC50 [3]: 72 ± 5 µM
EC50 (U87 MG cells [4]; Homo sapiens, U-87 MG, 24 h, U87 MG, read-out: EC50 24 h U87 MG): 800 ± 11 µM
EC50 (U87 MG cells [4]; Homo sapiens, U-87 MG, 48 h, U87 MG, read-out: EC50 48 h U87 MG): 580 ± 8 µM
EC50 (U87 MG cells [4]; Homo sapiens, U-87 MG, 72 h, U87 MG, read-out: EC50 72 h U87 MG): 575 ± 6 µM
EC50 ([5]; SVGp12, 24 h, read-out: EC50 24 h SVG p12): 80 ± 10 µM
EC50 ([5]; SVGp12, 48 h, read-out: EC50 48 h SVG p12): 76 ± 7 µM

N=C(N)NCCC[C@@H]1NC(=O)[C@H](CCCCNC(=O)CNC(=O)COCCOCCNC(=O)CN2CCN(CC(=O)O)CCN(CC(=O)O)CC2)NC(=O)[C@@H](Cc2ccccc2)NC(=O)[C@H](CC(=O)O)NC(=O)CNC1=O [[^64Cu]Cu-NOTA-c(RGDfK), metal not drawn]
Uptake 1h SVG p12 (SVG p12 cells [6]; 1 h): 2.67 ± 0.20 % total activity (CPM) /106 cells
Uptake 2h SVG p12 (SVG p12 cells [6]; 2 h): 4.02 ± 0.41 % total activity (CPM) /106 cells
Uptake 4h SVG p12 (SVG p12 cells [6]; 4 h): 5.36 ± 0.94 % total activity (CPM) /106 cells
Uptake 24h SVG p12 (SVG p12 cells [6]; 24 h): 7.90 ± 0.41 % total activity (CPM) /106 cells
Uptake 48h SVG p12 (SVG p12 cells [6]; 48 h): 7.30 ± 0.44 % total activity (CPM) /106 cells
Internalized activity 1h SVG p12 (SVG p12 cells [7]; 1 h): 1.72 ±0.14 % total activity (CPM) /106 cells
Internalized activity 2h SVG p12 (SVG p12 cells [7]; 2 h): 1.90 ± 0.14 % total activity (CPM) /106 cells
Internalized activity 4h SVG p12 (SVG p12 cells [7]; 4 h): 3.05 ±0.48 % total activity (CPM) /106 cells
Internalized activity 24h SVG p12 (SVG p12 cells [7]; 24 h): 6.80 ± 0.32 % total activity (CPM) /106 cells
Internalized activity 48h SVG p12 (SVG p12 cells [7]; 48 h): 5.98 ± 0.36 % total activity (CPM) /106 cells
Efflux (retained activity) 0.5h SVG p12 (SVG p12 cells [8]; [12]): 94.55 ± 7.92 % total activity (CPM) /106 cells
Efflux (retained activity) 1h SVG p12 (SVG p12 cells [8]; 1 h after wash): 88.05 ± 6.90 % total activity (CPM) /106 cells
Efflux (retained activity) 2h SVG p12 (SVG p12 cells [8]; 2 h after wash): 83.93 ± 6.98 % total activity (CPM) /106 cells
Efflux (retained activity) 4h SVG p12 (SVG p12 cells [8]; 4 h after wash): 73.44 ± 3.92 % total activity (CPM) /106 cells
Efflux (retained activity) 24h SVG p12 (SVG p12 cells [8]; 24 h after wash): 17.62 ± 1.81 % total activity (CPM) /106 cells
EC50 [3]: 0.118 ± 0.008 µM
EC50 ([3]; 24 h): > 0.3 µM
EC50 ([3]; 48 h): > 0.2 µM
Internalized activity 1h U87 MG (U87 MG cells [9]; 1 h): 3.13 ± 0.31 % total activity (CPM) /106 cells
Internalized activity 2h U87 MG (U87 MG cells [9]; 2 h): 3.28 ± 0.26 % total activity (CPM) /106 cells
Internalized activity 4h U87 MG (U87 MG cells [9]; 4 h): 5.00 ± 0.58 % total activity (CPM) /106 cells
Internalized activity 24h U87 MG (U87 MG cells [9]; 24 h): 11.44 ± 0.62 % total activity (CPM) /106 cells
Internalized activity 48h U87 MG (U87 MG cells [9]; 48 h): 15.08 ± 0.38 % total activity (CPM) /106 cells
EC50 (U87 MG cells [4]; 24 h): 0.025 ± 0.007 µM
EC50 (U87 MG cells [4]; 48 h): 0.032 ± 0.009 µM
EC50 (U87 MG cells [4]; 72 h): 0.045 ± 0.002 µM
Uptake 1h U87 MG (U87 MG cells [10]; 1 h, 37 °C): 2.50 ±1.00 % total activity (CPM) /106 cells
Uptake 2h U87 MG (U87 MG cells [10]; 2 h): 3.23 ±0.61 % total activity (CPM) /106 cells
Uptake 4h U87 MG (U87 MG cells [10]; 4 h): 6.08 ± 0.60 % total activity (CPM) /106 cells
Uptake 24h U87 MG (U87 MG cells [10]; 24 h): 14.11 ± 0.95 % total activity (CPM) /106 cells
Uptake 48h U87 MG (U87 MG cells [10]; 48 h): 18.95 ± 0.45 % total activity (CPM) /106 cells
Efflux (retained activity) 0.5h U87 MG (U87 MG cells [11]; [12]): 89.28 ± 6.24 % total activity (CPM) /106 cells
Efflux (retained activity) 1h U87 MG (U87 MG cells [11]; 1 h after wash): 85.47 ± 3.64 % total activity (CPM) /106 cells
Efflux (retained activity) 2h U87 MG (U87 MG cells [11]; 2 h after wash): 84.08 ± 7.95 % total activity (CPM) /106 cells
Efflux (retained activity) 4h U87 MG (U87 MG cells [11]; 4 h after wash): 80.93 ± 6.97 % total activity (CPM) /106 cells
Efflux (retained activity) 24h U87 MG (U87 MG cells [11]; 24 h after wash): 67.59 ± 2.23 % total activity (CPM) /106 cells
